Consider 11 molecules from patent US5807868A, “Isoquinoline derivatives as therapeutic agents” (Knoll Aktiengesellschaft, priority 1993, dated 1998).

Counter-ions that a name gives are not always drawn.

The target in one assay is D1 dopamine receptors (Rattus norvegicus, UniProt P18901). As to the kind of experiment: Inhibition of tritiated SCH 23390 binding to D1 dopamine receptors, rat striatal samples. Also noted: species or system rat (male Charles River CD rats). The conditions noted are these: for Ki: rat striatum, tritiated SCH 23390, pH 7.4, 37° C., 30 minutes; for Ki for D2 / Ki for D1: ratio between the D2 and D1 Ki values, to two significant figures. The method, then:
(§1) Striatal samples from the brains of male Charles River CD rats weighing between 140-250 g were homogenised in ice-cold 50 mM Tris-HCl buffer (pH 7.4 when measured at 25° C. for D1 binding assays and pH 7.7 when measured at 25° C. for D2 binding assays) and centrifuged for 10 minutes (at 21,000 g when used for D1 binding assay and 40,000 g when used for D2 binding assays). The pellet was resuspended in the same buffer, again centrifuged and the final pellet stored at -80° C. Before each test the pellet was resuspended in 50 mM Tris-HCl buffer containing 120 mM NaCl, 5 mM KCl, 2 mM CaCl2 and 1 mM MgCl2 at pH 7.4 for the D1 binding assays and at pH 7.7 with the addition of 6 mM ascorbic acid for the D2 binding assays. Aliquots of this suspension were then added to tubes containing the ligand and either the compound under test or buffer. For the D1 binding assays the ligand was tritiated SCH 23390 and the mixture was incubated at 37° C. for 30 minutes before the incubation was terminated by rapid filtration. For the D2 binding assays the ligand was tritiated (S)-sulpiride and the mixture was incubated at 4° C. for 40 minutes before the incubation was terminated by rapid filtration. Non-specific binding was determined experimentally by the addition of saturating concentrations of chloropromazine or spiroperidol for D1 and D2 receptors respectively.
(§2) The filters were washed with ice-cold Tris-HCl buffer and dried. The filters were punched out into vials containing scintillation fluid and were left for about 20 hours before being counted by scintillation spectrophotometry. Competition binding curves were produced over a range of concentrations of the compound under test and the inhibition coefficient Ki was derived from the data by use of the non-linear curve fitting computer programe EBDA (Biosoft).

The next assay deals with D2 dopamine receptors (Rattus norvegicus, UniProt P61169). As to the kind of experiment: Inhibition of tritiated (S)-sulpiride binding to D2 dopamine receptors, rat striatal samples. On the set-up: species or system rat (male Charles River CD rats). The conditions noted are these: rat striatum, pH 7.7, 4° C., 40 minutes. The method, then:
as §1, §2

Sequence of D2 dopamine receptors (P61169 whole entry): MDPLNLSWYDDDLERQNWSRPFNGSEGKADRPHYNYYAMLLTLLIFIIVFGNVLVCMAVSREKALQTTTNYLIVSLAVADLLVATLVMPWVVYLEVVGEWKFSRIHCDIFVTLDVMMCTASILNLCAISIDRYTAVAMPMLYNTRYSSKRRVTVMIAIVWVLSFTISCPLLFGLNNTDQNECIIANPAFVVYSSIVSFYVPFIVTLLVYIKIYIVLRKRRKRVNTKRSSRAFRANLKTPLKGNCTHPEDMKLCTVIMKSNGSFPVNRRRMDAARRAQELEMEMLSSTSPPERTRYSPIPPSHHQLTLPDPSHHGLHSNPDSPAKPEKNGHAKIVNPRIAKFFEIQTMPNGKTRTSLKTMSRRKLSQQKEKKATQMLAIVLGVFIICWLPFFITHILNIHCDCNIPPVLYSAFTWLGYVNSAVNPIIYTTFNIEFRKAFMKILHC
Sequence of D1 dopamine receptors (P18901 whole entry): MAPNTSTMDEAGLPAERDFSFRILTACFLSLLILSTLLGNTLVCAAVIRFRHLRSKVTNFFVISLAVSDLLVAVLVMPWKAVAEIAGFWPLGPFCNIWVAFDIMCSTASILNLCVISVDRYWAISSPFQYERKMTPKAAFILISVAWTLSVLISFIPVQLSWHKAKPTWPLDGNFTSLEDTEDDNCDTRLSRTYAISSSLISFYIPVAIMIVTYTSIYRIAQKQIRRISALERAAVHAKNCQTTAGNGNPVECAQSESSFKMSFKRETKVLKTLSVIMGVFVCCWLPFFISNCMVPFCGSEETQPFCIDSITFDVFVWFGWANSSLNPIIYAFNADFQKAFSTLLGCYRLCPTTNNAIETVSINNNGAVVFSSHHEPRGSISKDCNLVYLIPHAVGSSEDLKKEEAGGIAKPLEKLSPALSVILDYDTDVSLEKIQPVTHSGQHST

The Ki is a measure of affinity in units of concentration, obtained from inhibition or displacement. With `Br.Cc1cc2c(cc1O)C(C1(c3ccsc3)CC1)N(C)CC2` (racemic) [Example 8, (±)-7-hydroxy-2,6-dimethyl-1-[1-(3-thienyl)cyclopropyl]-1,2,3,4-tetrahydroisoquinoline hydrobromide], at D1 dopamine receptors, the inhibition constant (Ki) was 5.9 nM and the “Ki for D2 / Ki for D1” value is reported as 220. The molecule further showed a Ki on D2 dopamine receptors of 1300 nM.

With `Cc1cc2c(cc1O)C(C1(c3ccsc3)CC1)N(C)CC2.O=C(O)C(=O)O` (single isomer, unassigned; (-)) [Example 6, (-)-7-hydroxy-2,6-dimethyl-1-[1-(3-thienyl)cyclopropyl]-1,2,3,4-tetrahydroisoquinoline oxalate], at D1 dopamine receptors, the affinity, expressed as Ki, was 2.1 nM and the “Ki for D2 / Ki for D1” value came to 2300. This molecule returned a Ki at D2 dopamine receptors of 4900 nM.

On to `Cc1cc2c(cc1O)C(C1(c3ccsc3)CC1)N(C)CC2` (single isomer, unassigned; (-)) [Example 7, (-)-7-hydroxy-2,6-dimethyl-1-[1-(3-thienyl)cyclopropyl]-1,2,3,4-tetrahydroisoquinoline hydrochloride 0.8 hydrate], for which, at D1 dopamine receptors, the inhibition constant (Ki) amounted to 4.2 nM and the “Ki for D2 / Ki for D1” value is 2000. The affinity at D2 dopamine receptors, expressed as Ki, was 8500 nM.

In the case of `Br.CC(C)CC1(C2c3cc(O)ccc3CCN2C)CCC1` (stereo not drawn) [Example 1, 7-hydroxy-2-methyl-1-[1-(2-methylpropyl)cyclobutyl]-1,2,3,4-tetrahydroisoquinoline hydrobromide], at D1 dopamine receptors, the affinity corresponds to a Ki of 370 nM and the “Ki for D2 / Ki for D1” value came out at 68. Moreover, the Ki on D2 dopamine receptors came to 25000 nM.

For `Cc1cc2c(cc1O)C(C1(CC3CCCC3)CC1)N(C)CC2` (stereo not drawn) [Example 2, 1-[1-(cyclopentylmethyl)cyclopropyl]-7-hydroxy-2,6-dimethyl-1,2,3,4-tetrahydroisoquinoline], on D1 dopamine receptors, the Ki turned out to be 7.9 nM and the “Ki for D2 / Ki for D1” value was determined as 290. At D2 dopamine receptors, this molecule came in with an inhibition constant Ki of 2300 nM.

Regarding `Cc1cc2c(cc1O)C(C1(C3C=CCCC3)CCC1)N(C)CC2.O=C(O)C(=O)O` (stereo not drawn) [Example 3, 1-[1-(cyclohex-1-en-3-yl)cyclobutyl]-7-hydroxy-2,6-dimethyl-1,2,3,4-tetrahydroisoquinoline oxalate], on D1 dopamine receptors, the Ki was determined as 77 nM and the “Ki for D2 / Ki for D1” value was 120. This molecule also came in with an inhibition constant Ki at D2 dopamine receptors of 9500 nM.

On to `Cc1cc2c(cc1O)C(C1(C3CCCc4ccccc43)CC1)N(C)CC2` (stereo not drawn) [Example 4, 7-hydroxy-2,6-dimethyl-1-[1-(1,2,3,4-tetrahydronaphth-1-yl)cyclopropyl]-1,2,3,4-tetrahydroisoquinoline 1.05 hydrochloride 0.7 hydrate], for which, at D1 dopamine receptors, the inhibition constant Ki was 6.7 nM and the “Ki for D2 / Ki for D1” value turned out to be 28. Besides, the inhibition constant (Ki) on D2 dopamine receptors came to 190 nM.

Regarding `Br.Cc1cc2c(cc1O)C(C1(c3cccs3)CC1)N(C)CC2` (stereo not drawn) [Example 5, 7-hydroxy-2,6-dimethyl-1-[1-(2-thienyl)cyclopropyl]-1,2,3,4-tetrahydroisoquinoline hydrobromide], at D1 dopamine receptors, the Ki came out at 32 nM and the “Ki for D2 / Ki for D1” value was 94. This molecule also returned an inhibition constant Ki on D2 dopamine receptors of 3000 nM.

As for `Cc1cc2c(cc1O)C(C1(c3ccco3)CC1)N(C)CC2.O=C(O)/C=C\C(=O)O` (stereo not drawn) [Example 9, 1-[1-(2-furyl)cyclopropyl]-7-hydroxy-2,6-dimethyl-1,2,3,4-tetrahydroisoquinoline maleate], at D1 dopamine receptors, the inhibition constant Ki came to 40 nM and the “Ki for D2 / Ki for D1” value is 220. On D2 dopamine receptors, this molecule returned an inhibition constant (Ki) of 8900 nM.

With `CN1CCc2ccc(O)cc2C1C1(c2ccccn2)CCC1.O=C(O)C(=O)O` (stereo not drawn) [Example 10, 7-hydroxy-2-methyl-1-[1-(2-pyridyl)cyclobutyl]-1,2,3,4-tetrahydroisoquinoline oxalate], the Ki came to 160 nM on D1 dopamine receptors and 7000 nM on D2 dopamine receptors. Besides, at D1 dopamine receptors, the “Ki for D2 / Ki for D1” value was found to be 44.

Take `Cc1cc2c(cc1O)C(C1(c3ccccn3)CC1)N(C)CC2` (stereo not drawn) [Example 11, 7-hydroxy-2,6-dimethyl-1-[1-(2-pyridyl)cyclopropyl]-1,2,3,4-tetrahydroisoquinoline]: the Ki at D1 dopamine receptors worked out at 140 nM; on D2 dopamine receptors it was 1100 nM. For the same molecule, the “Ki for D2 / Ki for D1” value on D1 dopamine receptors amounted to 79.
